Test results as given in article PMC4317859 (Cancer Science, 2014).

Key:
[1] = test system: NCI-N87 (stomach); assay: Growth inhibition assay; assay type: cell-based; conditions: Homo sapiens, NCI-N87, 72 h, read-out: IC50, growth inhibition of cultured cells
[2] = test system: BT-474 (breast); assay: Growth inhibition assay; assay type: cell-based; conditions: Homo sapiens, BT-474, 72 h, read-out: IC50, growth inhibition of cultured cells
[3] = test system: SK-BR-3 (breast); assay: Growth inhibition assay; assay type: cell-based; conditions: Homo sapiens, SK-BR-3, 72 h, read-out: IC50, growth inhibition of cultured cells
[4] = test system: MDA-MB-453 (breast); assay: Growth inhibition assay; assay type: cell-based; conditions: Homo sapiens, MDA-MB-453, 72 h, read-out: IC50, growth inhibition of cultured cells
[5] = test system: MDA-MB-175VII (breast); assay: Growth inhibition assay; assay type: cell-based; conditions: Homo sapiens, 72 h, read-out: IC50, growth inhibition of cultured cells
[6] = test system: HT115 (colon); assay: Growth inhibition assay; assay type: cell-based; conditions: Homo sapiens, HT115, 72 h, read-out: IC50, growth inhibition of cultured cells
[7] = test system: Calu-3 (lung); assay: Growth inhibition assay; assay type: cell-based; conditions: Homo sapiens, Calu-3, 72 h, read-out: IC50, growth inhibition of cultured cells
[8] = test system: MRC-5 (lung); assay: Growth inhibition assay; assay type: cell-based; conditions: Homo sapiens, MRC5, 72 h, read-out: IC50, growth inhibition of cultured cells
[9] = test system: NCI-N87 cells; assay: Growth inhibition in the presence of human serum protein; assay type: cell-based; conditions: serum albumin or α1-acid glycoprotein vs standard medium
[10] = test system: BT-474 cells; assay: Survival model, intracranial implantation; assay type: in vivo, mice; conditions: 200 mg/kg, oral daily
[11] = Pharmacokinetics in nude mice; assay type: in vivo; conditions: from human plasma AUC and pharmacokinetic parameters in nude mice
[12] = target: serum albumin (Homo sapiens, UniProt P02768); conditions: cited from earlier work
[13] = test system: α1-acid glycoprotein; conditions: cited from earlier work
[14] = clinical dose 1200–1250 mg, once daily; cited from earlier work

serum albumin, sequence (P02768 25-609): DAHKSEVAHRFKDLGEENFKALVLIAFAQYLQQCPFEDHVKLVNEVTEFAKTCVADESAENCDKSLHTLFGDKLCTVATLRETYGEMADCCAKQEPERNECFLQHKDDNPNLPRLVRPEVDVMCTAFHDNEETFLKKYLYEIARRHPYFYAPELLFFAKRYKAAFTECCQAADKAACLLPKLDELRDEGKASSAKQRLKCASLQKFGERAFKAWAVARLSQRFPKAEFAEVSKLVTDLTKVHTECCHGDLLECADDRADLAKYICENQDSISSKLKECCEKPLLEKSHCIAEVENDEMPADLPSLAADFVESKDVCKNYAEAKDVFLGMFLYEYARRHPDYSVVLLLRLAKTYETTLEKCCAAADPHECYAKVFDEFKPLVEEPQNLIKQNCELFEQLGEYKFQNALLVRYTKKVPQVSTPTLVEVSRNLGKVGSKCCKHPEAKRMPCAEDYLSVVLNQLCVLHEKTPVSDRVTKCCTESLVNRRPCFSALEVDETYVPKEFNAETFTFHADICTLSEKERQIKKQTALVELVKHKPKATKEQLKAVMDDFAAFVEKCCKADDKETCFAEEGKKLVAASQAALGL

CS(=O)(=O)CCNCc1ccc(-c2ccc3ncnc(Nc4ccc(OCc5cccc(F)c5)c(Cl)c4)c3c2)o1 [Lapatinib, N-{3-chloro-4-[(3-fluorobenzyl)oxy]phenyl}-6-[5-({[2-(methylsulfonyl)ethyl]amino}methyl)-2-furyl]-4-quinazolinamine]
IC50 [1]: 36.4 ± 5.2 nM
IC50 [2]: 29.4 ± 2.2 nM
IC50 [3]: 56.9 ± 5.4 nM
IC50 [4]: 170 ± 3 nM
IC50 [5]: 70.2 ± 10.2 nM
IC50 [6]: 100 ± 1.5 nM
IC50 [7]: 510 ± 85.8 nM
IC50 [8]: 9140 ± 643 nM
Elevation of IC50 by addition of serum proteins [9]: 10.6–12.7 fold
Survival [10]: not significant
Clinically relevant dose in mice (assumed) [11]: approximately 50 mg/kg
Bound to serum albumin [12]: > 99%
Bound to α1-acid glycoprotein [13]: > 99%
Human plasma AUC [14]: 14300 to 36200 ng·h/mL
